Assay results taken from US8697739B2, “Bicyclic acetyl-CoA carboxylase inhibitors and uses thereof” (Novartis AG, priority 2010, dated 2014).

The molecules below were run against T1, human acetyl-CoA carboxylase 2 (ACC2) (Homo sapiens, UniProt O00763) (assay: Acetyl-CoA carboxylase enzyme assay (malonyl-CoA formation by LC/MS/MS)). Conditions: recombinant human ACC2 (aa 144-2458); read-out: IC50 ACC2.
T1 construct: The cDNA encoding amino acids 144 to 2458 of human acetyl-CoA carboxylase 2; made in house; host or cells: Sf9 insect cells (baculovirus, pFastBac1)
Format: biochemical
Outline: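 Malonyl-CoA formation was read by LC/MS/MS MRM against a [13C3]-malonyl-CoA internal standard, after acetic acid quench. The enzyme was baculovirus/Sf9-expressed human ACC2 residues 144–2458, given 15 minutes room-temperature compound preincubation in HEPES pH 7.5 buffer with MgCl2, citrate and DTT. Substrate solution held 50 μM acetyl-CoA, 120 μM ATP and 2 mM KHCO3.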

T1 sequence (O00763 144-2458): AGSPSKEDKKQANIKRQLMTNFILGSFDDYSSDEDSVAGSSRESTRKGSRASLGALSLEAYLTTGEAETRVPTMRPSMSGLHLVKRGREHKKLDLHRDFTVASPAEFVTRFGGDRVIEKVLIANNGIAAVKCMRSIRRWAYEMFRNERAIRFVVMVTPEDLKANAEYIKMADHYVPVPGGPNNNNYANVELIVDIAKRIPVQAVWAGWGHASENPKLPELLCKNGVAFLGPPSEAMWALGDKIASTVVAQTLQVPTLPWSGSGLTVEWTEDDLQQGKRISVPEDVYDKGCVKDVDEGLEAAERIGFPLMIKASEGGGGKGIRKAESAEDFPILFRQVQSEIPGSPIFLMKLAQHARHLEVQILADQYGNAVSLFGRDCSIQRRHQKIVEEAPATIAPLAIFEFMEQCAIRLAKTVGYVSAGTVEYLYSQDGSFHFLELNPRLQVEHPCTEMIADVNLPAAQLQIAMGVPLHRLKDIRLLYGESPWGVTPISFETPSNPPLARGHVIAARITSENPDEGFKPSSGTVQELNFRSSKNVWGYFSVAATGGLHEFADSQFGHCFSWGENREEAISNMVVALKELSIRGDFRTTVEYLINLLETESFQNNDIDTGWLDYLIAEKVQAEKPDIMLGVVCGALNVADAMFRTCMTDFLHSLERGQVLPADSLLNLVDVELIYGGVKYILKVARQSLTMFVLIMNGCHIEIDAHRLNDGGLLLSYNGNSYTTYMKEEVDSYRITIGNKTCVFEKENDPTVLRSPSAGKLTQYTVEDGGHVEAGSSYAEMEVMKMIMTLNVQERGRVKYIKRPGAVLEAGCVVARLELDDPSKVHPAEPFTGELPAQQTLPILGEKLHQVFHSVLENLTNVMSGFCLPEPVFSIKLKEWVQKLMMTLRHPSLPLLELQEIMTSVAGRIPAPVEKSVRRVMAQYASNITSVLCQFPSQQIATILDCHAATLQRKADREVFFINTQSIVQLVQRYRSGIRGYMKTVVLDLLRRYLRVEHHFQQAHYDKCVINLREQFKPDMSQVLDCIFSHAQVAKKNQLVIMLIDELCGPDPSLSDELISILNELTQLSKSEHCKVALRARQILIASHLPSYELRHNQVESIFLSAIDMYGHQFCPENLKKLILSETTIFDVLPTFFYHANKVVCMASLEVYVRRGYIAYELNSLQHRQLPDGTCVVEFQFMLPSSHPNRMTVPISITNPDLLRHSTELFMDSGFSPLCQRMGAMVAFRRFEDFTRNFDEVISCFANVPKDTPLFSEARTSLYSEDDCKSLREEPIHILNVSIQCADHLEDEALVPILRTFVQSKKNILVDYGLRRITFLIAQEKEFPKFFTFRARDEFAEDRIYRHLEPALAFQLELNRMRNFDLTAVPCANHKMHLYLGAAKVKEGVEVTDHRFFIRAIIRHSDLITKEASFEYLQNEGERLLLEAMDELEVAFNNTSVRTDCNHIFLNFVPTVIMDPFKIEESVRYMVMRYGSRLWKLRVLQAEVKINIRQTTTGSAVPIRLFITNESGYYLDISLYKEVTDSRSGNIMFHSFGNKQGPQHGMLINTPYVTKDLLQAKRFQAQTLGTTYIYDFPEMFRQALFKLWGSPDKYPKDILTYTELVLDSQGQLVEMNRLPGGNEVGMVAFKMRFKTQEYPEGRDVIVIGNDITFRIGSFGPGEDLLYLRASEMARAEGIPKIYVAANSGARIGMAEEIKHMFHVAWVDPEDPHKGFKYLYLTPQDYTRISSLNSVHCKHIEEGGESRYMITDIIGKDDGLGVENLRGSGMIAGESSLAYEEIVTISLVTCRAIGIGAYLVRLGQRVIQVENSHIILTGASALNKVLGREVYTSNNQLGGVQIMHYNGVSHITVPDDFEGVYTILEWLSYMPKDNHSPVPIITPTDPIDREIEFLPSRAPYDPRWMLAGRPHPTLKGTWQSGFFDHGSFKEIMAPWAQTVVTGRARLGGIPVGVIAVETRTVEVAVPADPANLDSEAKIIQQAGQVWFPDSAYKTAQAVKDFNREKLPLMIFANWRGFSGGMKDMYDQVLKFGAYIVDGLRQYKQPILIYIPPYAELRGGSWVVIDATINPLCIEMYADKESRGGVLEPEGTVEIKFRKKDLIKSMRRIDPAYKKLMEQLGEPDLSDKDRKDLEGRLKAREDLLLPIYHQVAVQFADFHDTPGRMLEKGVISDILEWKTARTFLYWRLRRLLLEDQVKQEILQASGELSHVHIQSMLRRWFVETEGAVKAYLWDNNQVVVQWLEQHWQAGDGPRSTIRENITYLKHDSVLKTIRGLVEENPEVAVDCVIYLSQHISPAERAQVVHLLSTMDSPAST

Row | Structure (SMILES) | IC50 [nM]
1 | Cc1cc(-c2ccc3cc(S(=O)(=O)N[C@H]4CC[C@H](C(=O)N5CCOC[C@@H]5C(C)C)CC4)ccc3n2)cc(C)n1 [Example 261, 2-(2,6-dimethylpyridin-4-yl)-N-((1S,4r)-4-((S)-3-isopropylmorpholine-4-carbonyl)cyclohexyl)quinoline-6-sulfonamide] | 460
2 | Cc1cc(CO)ccc1-c1cc2ccc(S(=O)(=O)N[C@H]3CC[C@H](C(=O)N4CCCCC4)CC3)cc2[nH]1 [Example 314, 2-(4-(hydroxymethyl)-2-methylphenyl)-N-((1r,4r)-4-(piperidine-1-carbonyl)cyclohexyl)-1H-indole-6-sulfonamide] | 60
3 | COCc1ccc(-c2cc3ccc(S(=O)(=O)N[C@H]4CC[C@H](C(=O)N5CCOC[C@@H]5C)CC4)cc3[nH]2)cc1 [Example 436, 2-(4-(methoxymethyl)phenyl)-N-((1S,4r)-4-((S)-3-methylmorpholine-4-carbonyl)cyclohexyl)-1H-indole-6-sulfonamide] | 20
4 | COC(=O)[C@H]1CC[C@H](NS(=O)(=O)c2ccc3nc(-c4ccccc4)[nH]c3c2)CC1 [Example 98, (1r,4r)-methyl 4-(2-phenyl-1H-benzo[d]imidazole-6-sulfonamido)cyclohexanecarboxylate] | 4300
5 | C[C@@H](NC(=O)[C@H]1CC[C@H](NS(=O)(=O)c2ccc3[nH]c(Nc4ccccc4)nc3c2)CC1)c1ccccc1 [Example 569, (1r,4R)-4-(2-(phenylamino)-1H-benzo[d]imidazole-5-sulfonamido)-N-((R)-1-phenylethyl)cyclohexanecarboxamide] | < 10
6 | CCN(C)C(=O)[C@H]1CC[C@H](NS(=O)(=O)c2ccc3cc(-c4ccc(CCC(=O)OC)cc4)n(C)c3c2)CC1 [Example 364, methyl 3-(4-(6-(N-((1r,4r)-4-(ethyl(methyl)carbamoyl)cyclohexyl)sulfamoyl)-1-methyl-1H-indol-2-yl)phenyl)propanoate] | 140
7 | CC(C)(C)OC(=O)N1CCN(C(=O)[C@H]2CC[C@H](NS(=O)(=O)c3ccc4c(c3)NCCC4)CC2)C(c2ccccc2)C1 (stereo partly drawn) [Example 174, tert-butyl 3-phenyl-4-((1r,4r)-4-(1,2,3,4-tetrahydroquinoline-7-sulfonamido)cyclohexanecarbonyl)piperazine-1-carboxylate] | 45
8 | CC(C)OC(=O)c1ccc(NS(=O)(=O)c2ccc3[nH]c(Nc4cccc(-n5ccsc5=O)c4)nc3c2)cc1 [Example 549, isopropyl 4-(2-(3-(2-oxothiazol-3(2H)-yl)phenylamino)-1H-benzo[d]imidazole-5-sulfonamido)benzoate] | 737
9 | O=C([C@H]1CC[C@H](NS(=O)(=O)c2ccc3c(c2)NCCC3)CC1)N1CCOCC1c1ccccc1 (stereo partly drawn) [Example 178, N-((1r,4r)-4-(3-phenylmorpholine-4-carbonyl)cyclohexyl)-1,2,3,4-tetrahydroquinoline-7-sulfonamide] | 55
10 | CC(C)OC(=O)c1ccc(NS(=O)(=O)c2ccc3[nH]c(-c4ccc(CN5CCN(C)CC5)cc4)nc3c2)cc1 [Example 561, isopropyl 4-(2-(4-((4-methylpiperazin-1-yl)methyl)phenyl)-1H-benzo[d]imidazole-5-sulfonamido)benzoate] | 316
11 | O=C(NC1(c2ccccc2)CC1)[C@H]1CC[C@H](NS(=O)(=O)c2ccc3[nH]c(-c4ccccc4)nc3c2)CC1 [Example 581, (1r,4r)-4-(2-phenyl-1H-benzo[d]imidazole-5-sulfonamido)-N-(1-phenylcyclopropyl)cyclohexanecarboxamide] | 309
12 | O=C(OCc1ccccc1)[C@H]1CC[C@H](NS(=O)(=O)c2ccc3nc(-c4ccccc4)[nH]c3c2)CC1 [Example 99, (1r,4r)-benzyl 4-(2-phenyl-1H-benzo[d]imidazole-6-sulfonamido)cyclohexanecarboxylate] | 494
13 | C[C@@H](NC(=O)[C@H]1CC[C@H](NS(=O)(=O)c2ccc3nc(-c4ccncc4)ccc3c2)CC1)c1ccc(F)cc1 [Example 39, (1r,4R)-N-((R)-1-(4-fluorophenyl)ethyl)-4-(2-(pyridin-4-yl)quinoline-6-sulfonamido)cyclohexanecarboxamide] | 25
14 | CC(C)c1nnc([C@H]2CC[C@H](NS(=O)(=O)c3ccc4[nH]c(Nc5ccc(N6CCOCC6)cc5)nc4c3)CC2)o1 [Example 599, N-((1r,4r)-4-(5-isopropyl-1,3,4-oxadiazol-2-yl)cyclohexyl)-2-(4-morpholinophenylamino)-1H-benzo[d]imidazole-5-sulfonamide] | 270
15 | C[C@@H](NC(=O)[C@H]1CC[C@H](NS(=O)(=O)c2ccc3[nH]c(-c4cccnc4)nc3c2)CC1)c1ccccc1 [Example 281, (1r,4R)-N-((R)-1-phenylethyl)-4-(2-(pyridin-3-yl)-1H-benzo[d]imidazole-5-sulfonamido)cyclohexanecarboxamide] | 11
16 | CC(C)[C@H]1COCCN1C(=O)[C@H]1CC[C@H](NS(=O)(=O)c2ccc3nc(N4CCN(C)CC4)ccc3c2)CC1 [Example 260, N-((1S,4r)-4-((S)-3-isopropylmorpholine-4-carbonyl)cyclohexyl)-2-(4-methylpiperazin-1-yl)quinoline-6-sulfonamide] | 2960
17 | O=C(NCC1CCCCCC1)[C@H]1CC[C@H](NS(=O)(=O)c2ccc3[nH]c(-c4ccccc4)nc3c2)CC1 [Example 641, (1r,4r)-N-(cycloheptylmethyl)-4-(2-phenyl-1H-benzo[d]imidazole-5-sulfonamido)cyclohexanecarboxamide] | 276
18 | CC(C)OC(=O)c1ccc(NS(=O)(=O)c2ccc3[nH]c(Nc4ccc(F)cc4)nc3c2)cc1 [Example 522, isopropyl 4-(2-(4-fluorophenylamino)-1H-benzo[d]imidazole-5-sulfonamido)benzoate] | 320
19 | COc1cccc(-c2nc3ccc(S(=O)(=O)Nc4ccc(C(=O)OC(C)C)cc4)cc3[nH]2)c1 [Example 500, isopropyl 4-(2-(3-methoxyphenyl)-1H-benzo[d]imidazole-6-sulfonamido)benzoate] | 1490
20 | Cc1cc(-c2ccc3cc(S(=O)(=O)N[C@H]4CC[C@H](C(=O)N5CCNCC5c5ccccc5)CC4)ccc3n2)cc(C)n1 (stereo partly drawn) [Example 254, 2-(2,6-dimethylpyridin-4-yl)-N-((1r,4r)-4-(2-phenylpiperazine-1-carbonyl)cyclohexyl)quinoline-6-sulfonamide] | 20
21 | C[C@@H](NC(=O)[C@H]1CC[C@H](NS(=O)(=O)c2ccc3[nH]c(=O)oc3c2)CC1)c1ccc(F)cc1 [Example 659, (1r,4R)-N-((R)-1-(4-fluorophenyl)ethyl)-4-(2-oxo-2,3-dihydrobenzo[d]oxazole-6-sulfonamido)cyclohexanecarboxamide] | 378

Other lines, results leading:

Row | IC50 [nM] | Structure (SMILES)
22 | 110 | COCC[C@@H](NC(=O)[C@H]1CC[C@H](NS(=O)(=O)c2ccc3c(ccn3C)c2)CC1)c1ccccc1 [Example 679, (1r,4R)-N-((R)-3-methoxy-1-phenylpropyl)-4-(1-methyl-1H-indole-5-sulfonamido)cyclohexanecarboxamide]
23 | 365 | Cn1c(C2CC2)cc2ccc(S(=O)(=O)N[C@H]3CC[C@H](C(=O)N[C@@H](CO)C4CC4)CC3)cc21 [Example 446, (1r,4R)-4-(2-cyclopropyl-1-methyl-1H-indole-6-sulfonamido)-N-((R)-1-cyclopropyl-2-hydroxyethyl)cyclohexanecarboxamide]
24 | 120 | Cn1c(-c2ccc(CO)cc2)cc2ccc(S(=O)(=O)N[C@H]3CC[C@H](C(=O)N4CCNC(=O)C4)CC3)cc21 [Example 347, 2-(4-(hydroxymethyl)phenyl)-1-methyl-N-((1r,4r)-4-(3-oxopiperazine-1-carbonyl)cyclohexyl)-1H-indole-6-sulfonamide]
25 | > 35000 | CC(NC(=O)[C@H]1CC[C@H](NS(=O)(=O)c2cnc3ccccc3c2)CC1)c1cnn(C)c1 (stereo partly drawn) [Example 62, (1r,4r)-N-(1-(1-methyl-1H-pyrazol-4-yl)ethyl)-4-(quinoline-3-sulfonamido)cyclohexanecarboxamide]
26 | 28 | C[C@@H](NC(=O)[C@H]1CC[C@H](NS(=O)(=O)c2cnc3c(c2)N(C)C2CCCCC2N3C)CC1)c1ccc(F)cc1 (stereo partly drawn) [Example 134, (1r,4R)-4-(5,10-dimethyl-5,5a,6,7,8,9,9a,10-octahydropyrido[3,2-b]quinoxaline-3-sulfonamido)-N((R)-1-(4-fluorophenyl)ethyl)cyclohexanecarboxamide]
27 | 50 | CCC1(CC)CN(C(=O)[C@H]2CC[C@H](NS(=O)(=O)c3ccc4cc(-c5ccccc5)n(C)c4c3)CC2)CCO1 [Example 424, N-((1r,4r)-4-(2,2-diethylmorpholine-4-carbonyl)cyclohexyl)-1-methyl-2-phenyl-1H-indole-6-sulfonamide]
28 | 120 | COC(=O)CCc1ccc(-c2cc3ccc(S(=O)(=O)N[C@H]4CC[C@H](C(=O)N5CCCCC5)CC4)cc3n2C)cc1 [Example 357, methyl 3-(4-(1-methyl-6-(N-((1r,4r)-4-(piperidine-1-carbonyl)cyclohexyl)sulfamoyl)-1H-indol-2-yl)phenyl)propanoate]
29 | < 10 | C[C@@H](NC(=O)[C@H]1CC[C@H](NS(=O)(=O)c2ccc3cc(-c4ccccc4)n(C)c3c2)CC1)c1ccc(F)cc1 [Example 20, (1r,4R)—N—((R)-1-(4-fluorophenyl)ethyl)-4-(1-methyl-2-phenyl-1H-indole-6-sulfonamido)cyclohexanecarboxamide]
30 | 245 | Cc1c(C2CC2)n(C)c2cc(S(=O)(=O)N[C@H]3CC[C@H](C(=O)N4CCOC[C@@H]4C)CC3)ccc12 [Example 32, 2-cyclopropyl-1,3-dimethyl-N-((1S,4r)-4-((S)-3-methylmorpholine-4-carbonyl)cyclohexyl)-1H-indole-6-sulfonamide]
